Like-named read-outs stand apart in the source and are kept apart here.
What was measured:
Mouse Liver [1] = conditions: ref ToxRefDB, cited from earlier work
Mouse Liver [2] = conditions: mouse chronic study, liver, coded 6 / Inf, ref ToxRefDB, cited from earlier work
Mouse Liver [3] = conditions: mouse chronic study, liver, coded 6 / Inf, ref ToxRefDB, cited from earlier work; remark: listed apart in the source
Rat Liver [4] = conditions: ref ToxRefDB, cited from earlier work
Rat Liver [5] = conditions: ref ToxRefDB, cited from earlier work; remark: listed apart in the source
Rat Liver [6] = conditions: ref ToxRefDB, cited from earlier work; remark: listed apart in the source
PXR (NR1I2) [7] = molecular target: T1, PXR (NR1I2) (Homo sapiens, UniProt O75469); experiment: ATG_PXR_TRANS: Factorial reporter gene assay (HepG2); type: cell-based; parameters: endogenous in cells; host or cells: HepG2; conditions: HepG2
T1 sequence (O75469 1-434): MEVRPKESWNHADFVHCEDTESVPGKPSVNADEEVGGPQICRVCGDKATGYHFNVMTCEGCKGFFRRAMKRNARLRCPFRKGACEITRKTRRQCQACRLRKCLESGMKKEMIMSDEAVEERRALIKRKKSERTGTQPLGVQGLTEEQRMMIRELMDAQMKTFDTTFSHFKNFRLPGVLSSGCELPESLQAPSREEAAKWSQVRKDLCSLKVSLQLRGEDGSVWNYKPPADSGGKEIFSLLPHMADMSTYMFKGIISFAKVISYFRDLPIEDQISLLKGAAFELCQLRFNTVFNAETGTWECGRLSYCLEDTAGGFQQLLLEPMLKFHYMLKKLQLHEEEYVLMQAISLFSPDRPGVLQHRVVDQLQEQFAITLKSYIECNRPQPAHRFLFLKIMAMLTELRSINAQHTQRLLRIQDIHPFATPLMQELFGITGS
Procedure: (§1) A multiple reporter transcription unit (MRTU) library consisting of 48 transcription factor binding sites was transfected into the HepG2 human liver hepatoma cell line. In addition to the cis-acting reporter genes (CIS), a modification of the approach was used to generate a trans-system (TRANS) with a mammalian one-hybrid assay consisting of an additional 25 MRTU library reporting the activity of nuclear receptor super-family members. […] These assays were performed by Attagene Inc. (Morrisville NC) under contract to EPA.
(§2) In addition to the cis-acting reporter genes (CIS), a modification of the approach was used to generate a trans-system (TRANS) with a mammalian one-hybrid assay consisting of an additional 25 MRTU library reporting the activity of nuclear receptor super-family members. […] Chemicals were then tested in the CIS and TRANS assays at seven concentrations starting at the MTC and followed by three-fold serial dilutions. These assays were performed by Attagene Inc. (Morrisville NC) under contract to EPA. Detailed description of the methods, data and analysis methods for this dataset will be presented in a separate publication.

CYP3A4 = experiment: CLZD_CYP3A4: Change in expression of CYP3A4 (primary human hepatocytes); type: cell-based; conditions: 24 hr
Procedure: (§3) This is a collection of multiplexed gene expression assays focused on Phase I and II xenobiotic metabolizing enzymes and transporters. Human primary cell cultures were treated with chemicals at 5 concentrations (0.004-40 [drawing 42] M) for 6, 24 and 48 hr. Concentration- and time-response profiles of chemicals were measured by the expression of key nuclear receptor target genes, activities of CYP1A enzymes (EROD), and cell morphology. Fourteen gene targets were monitored by quantitative nuclease protection assay including: six representative cytochrome P-450 genes, four hepatic transporters, three Phase II conjugating enzymes, and one endogenous metabolism gene involved in cholesterol synthesis. The target genes associated with nuclear receptor pathways are as follows: [drawing 43] and [drawing 44] with [drawing 45]; [drawing 46] , [drawing 47] , [drawing 48] , [drawing 49] , [drawing 50] and [drawing 51] with [drawing 52]; [drawing 53] , [drawing 54] , [drawing 55] and [drawing 56] with [drawing 57]; [drawing 58] with [drawing 59]; and [drawing 60] with [drawing 61] . Assays were run in primary human hepatocyte cultures by CellzDirect Invitrogen Inc. (Durham, NC), in collaboration with EPA.
(§4) Multiplexed Gene Expression in Human Primary Hepatocytes: This is a collection of multiplexed gene expression assays focused on Phase I and II metabolic enzymes and transporters. […] Fourteen gene targets were monitored by quantitative nuclease protection assay: six representative cytochrome P450 genes, four hepatic transporters, three Phase II conjugating enzymes, and one endogenous metabolism gene involved in cholesterol synthesis. Cells were exposed at 5 concentrations (0.004-40 µM) for 6, 24 or 48 hr. Gene targets are sentinels for five nuclear receptor signaling pathways: AhR, CAR, PXR, FXR, and PPARα. All gene are associated with nuclear receptor pathways: CYP1A1 and CYP1A2 with AHR; ABCB1, ABCG2, CYP2B6, CYP2C9, CYP2C19 and UGT1A1 with CAR; CYP3A4, GSTA2, SLCO1B1 and SULT2A1 with PXR; HMGCS2 with PPARA; and ABCB11 with FXR. […] Detailed description of the methods, data and analysis methods for this dataset will be presented in a separate publication.

CYP1A1 = experiment: CLZD_CYP1A1: Change in expression of CYP1A1 (primary human hepatocytes); type: cell-based; conditions: 24 hr
Procedure: as §3, §4

[8] = molecular target: T2, PPARG (peroxisome proliferator-activated receptor gamma) (Homo sapiens, UniProt P37231); experiment: ATG_PPARg_TRANS: Factorial reporter gene assay (HepG2); type: cell-based; conditions: HepG2
T2 construct: expressed in transfected cells; host or cells: HepG2
T2 sequence (P37231 1-505): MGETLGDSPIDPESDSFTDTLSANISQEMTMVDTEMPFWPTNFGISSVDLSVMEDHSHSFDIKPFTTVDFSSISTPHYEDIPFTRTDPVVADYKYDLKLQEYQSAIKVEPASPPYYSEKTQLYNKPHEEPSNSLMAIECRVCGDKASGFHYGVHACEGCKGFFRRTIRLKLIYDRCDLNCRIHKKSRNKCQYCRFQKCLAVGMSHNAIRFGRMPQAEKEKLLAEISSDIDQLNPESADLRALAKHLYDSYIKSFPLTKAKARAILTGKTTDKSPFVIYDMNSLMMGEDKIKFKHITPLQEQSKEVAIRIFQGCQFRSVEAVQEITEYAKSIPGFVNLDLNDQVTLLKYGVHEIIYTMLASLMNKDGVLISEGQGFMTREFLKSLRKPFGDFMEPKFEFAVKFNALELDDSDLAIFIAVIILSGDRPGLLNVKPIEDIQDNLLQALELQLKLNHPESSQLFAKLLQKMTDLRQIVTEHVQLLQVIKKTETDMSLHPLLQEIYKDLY
Procedure: as §1, §2

CYP1A2 = experiment: CLZD_CYP1A2: Change in expression of CYP1A2 (primary human hepatocytes); type: cell-based; conditions: 24 hr
Procedure: as §3, §4

PXR (NR1I2) [9] = molecular target: T1, PXR (NR1I2); experiment: ATG_PXRE_CIS: Factorial reporter gene assay (HepG2); type: cell-based; parameters: endogenous in cells; host or cells: HepG2; conditions: HepG2
Procedure: as §1, §2

CYP2B6 = experiment: CLZD_CYP2B6: Change in expression of CYP2B6 (primary human hepatocytes); type: cell-based; conditions: 24 hr
Procedure: as §3, §4

PXR (NR1I2) [10] = molecular target: T1, PXR (NR1I2); experiment: NVS_NR_hPXR: Human PXR Fluormone PXR (SXR) green (cell-free HTS); type: binding
Excerpt: These are a collection of biochemical assays measuring binding constants and enzyme inhibition values. Chemicals were initially screened at a single concentration in duplicate wells at a concentration of 10 [drawing 63] M for cytochrome P-450 assays and 25 [drawing 64] M for all others. […] These assays were run by Caliper Life Sciences (Hanover, MD) under contract to EPA. Short assay descriptions are available at: http://www.caliperls.com/products/contract-research/in-vitro/.
Cell-free HTS Assays: A collection of biochemical assays measuring binding constants and enzyme inhibition values. […] These assays were run by Caliper Life Sciences (Hanover, MD) under contract to EPA. Short assay descriptions are available at http://www.caliperls.com/products/contract-research/in-vitro/. Values for all endpoints were imported into GeneData Screener (Basel, Switzerland) and normalised to solvent controls from the same plate as the tested compounds and expressed as percent of neutral control. Concentration-response curves were fit in GeneData Screener (Basel, Switzerland) Condeseo module using the Hill equation and AC50 values were determined. […] Detailed description of the methods, data and analysis methods for this dataset are described in a separate publication.

[11] = mouse chronic study, liver, any lesion, coded 6 / Inf, code not explained in the table
[12] = preneoplastic lesion, code not explained in the table
[13] = neoplastic lesion, code not explained in the table
[14] = mouse chronic study, liver, coded 6 / Inf, code not explained in table
[15] = rat chronic study, liver, coded 6 / 0, code not explained in table

Compound: CCCCNC(=O)n1c(NC(=O)OC)nc2ccccc21 [Dataset S3 row 27]
- CHR_Mouse_Liver_1_AnyLesion (Mouse Liver [1]; [11]): 6
- CHR_Mouse_Liver_2_PreneoplasticLesion (Mouse Liver [2]; [12]): 6
- CHR_Mouse_Liver_3_NeoplasticLesion (Mouse Liver [3]; [13]): 6

Compound: Cc1ccc(/N=C/N(C)/C=N/c2ccc(C)cc2C)c(C)c1 [Dataset S3 row 18]
- CHR_Mouse_Liver_1_AnyLesion (Mouse Liver [1]; [11]): 6
- CHR_Mouse_Liver_2_PreneoplasticLesion (Mouse Liver [2]; [12]): 6
- CHR_Rat_Liver_1_AnyLesion (Rat Liver [4]; rat chronic study, liver, any lesion, coded 6 / 0, code not explained in the table): 0
- CHR_Mouse_Liver_3_NeoplasticLesion (Mouse Liver [3]; [13]): 6
- CHR_Rat_Liver_3_NeoplasticLesion (Rat Liver [5]; rat chronic study, liver, neoplastic lesion, coded 6 / 0, code not explained in the table): 0
- CHR_Rat_Liver_2_PreneoplasticLesion (Rat Liver [6]; rat chronic study, liver, preneoplastic lesion, coded 6 / 0, code not explained in the table): 0

Compound: CS/C(C)=N/OC(=O)N(C)SN(C)C(=O)O/N=C(\C)SC [chemical 300]
- CHR_Mouse_Liver_1_AnyLesion (Mouse Liver [1]; [14]): 6
- CHR_Mouse_Liver_2_PreneoplasticLesion (Mouse Liver [2]; code not explained in table): 6
- CHR_Rat_Liver_1_AnyLesion (Rat Liver [4]; [15]): 0
- CHR_Mouse_Liver_3_NeoplasticLesion (Mouse Liver [3]; code not explained in table): 6
- CHR_Rat_Liver_3_NeoplasticLesion (Rat Liver [5]; [15]): 0
- CHR_Rat_Liver_2_PreneoplasticLesion (Rat Liver [6]; [15]): 0

Compound: CN1COCN(Cc2cnc(Cl)s2)/C1=N\[N+](=O)[O-] [chemical 296]
- CHR_Mouse_Liver_1_AnyLesion (Mouse Liver [1]; [14]): 6
- CHR_Mouse_Liver_2_PreneoplasticLesion (Mouse Liver [2]; code not explained in table): 6
- CHR_Rat_Liver_1_AnyLesion (Rat Liver [4]; [15]): 6
- CHR_Mouse_Liver_3_NeoplasticLesion (Mouse Liver [3]; code not explained in table): 6
- CHR_Rat_Liver_3_NeoplasticLesion (Rat Liver [5]; [15]): 0
- CHR_Rat_Liver_2_PreneoplasticLesion (Rat Liver [6]; [15]): 0

Compound: CC(C)Nc1nc(Cl)nc(NC(C)C)n1 [r260]
- ATG_PXR_TRANS (PXR (NR1I2) [7]): 4.469
- CLZD_CYP3A4_24 (CYP3A4): 5.248
- CLZD_CYP1A1_24 (CYP1A1): 4.988
- ATG_PPARg_TRANS [8]: 4.481
- CHR_Mouse_Liver_1_AnyLesion (Mouse Liver [1]; mouse, chronic study): 6
- CLZD_CYP1A2_24 (CYP1A2): 5.254
- CHR_Rat_Liver_1_AnyLesion (Rat Liver [4]; rat, chronic study): 0
- ATG_PXRE_CIS (PXR (NR1I2) [9]): 4.569
- CLZD_CYP2B6_24 (CYP2B6): 5.165
- CHR_Rat_Liver_3_NeoplasticLesion (Rat Liver [5]; rat, chronic study): 0
- CHR_Rat_Liver_2_PreneoplasticLesion (Rat Liver [6]; rat, chronic study): 0

Compound: S=C([S-])NCCNC(=S)[S-].[Zn+2] [row 207]
- CLZD_CYP1A1_24 (CYP1A1): 5.214
- ATG_PPARg_TRANS [8]: 4.409
- NVS_NR_hPXR (PXR (NR1I2) [10]): 5.59
- CLZD_CYP1A2_24 (CYP1A2): 5.296
- CHR_Rat_Liver_1_AnyLesion (Rat Liver [4]; chronic rat study, liver): 0
- ATG_PXRE_CIS (PXR (NR1I2) [9]): 4.387
- CHR_Rat_Liver_3_NeoplasticLesion (Rat Liver [5]; chronic rat study, liver): 0
- CHR_Rat_Liver_2_PreneoplasticLesion (Rat Liver [6]; chronic rat study, liver): 0

Compound: CCC(CC)Nc1c([N+](=O)[O-])cc(C)c(C)c1[N+](=O)[O-] [r238]
- ATG_PXR_TRANS (PXR (NR1I2) [7]): 4.432
- CLZD_CYP1A1_24 (CYP1A1): 5.24
- ATG_PPARg_TRANS [8]: 4.167
- NVS_NR_hPXR (PXR (NR1I2) [10]): 5.143
- CHR_Rat_Liver_1_AnyLesion (Rat Liver [4]; rat, chronic study): 6
- ATG_PXRE_CIS (PXR (NR1I2) [9]): 4.959
- CLZD_CYP2B6_24 (CYP2B6): 4.988
- CHR_Rat_Liver_3_NeoplasticLesion (Rat Liver [5]; rat, chronic study): 0
- CHR_Rat_Liver_2_PreneoplasticLesion (Rat Liver [6]; rat, chronic study): 6

Source: publication PMC3038857, “Using Nuclear Receptor Activity to Stratify Hepatocarcinogens” (PLoS ONE, 2011)
